The record followed here is patent US20240270750A1, “IMIDAZOLE-CONTAINING INHIBITORS OF ALK2 KINASE” (BioCryst Pharmaceuticals, Inc., priority 2021, published 2024).

For the assay, the target named is T1, ALK2 (Homo sapiens, UniProt Q04771).
T1 construct: purchased ThermoFisher Scientific (Life Technologies)
T1 sequence (Q04771 21-509): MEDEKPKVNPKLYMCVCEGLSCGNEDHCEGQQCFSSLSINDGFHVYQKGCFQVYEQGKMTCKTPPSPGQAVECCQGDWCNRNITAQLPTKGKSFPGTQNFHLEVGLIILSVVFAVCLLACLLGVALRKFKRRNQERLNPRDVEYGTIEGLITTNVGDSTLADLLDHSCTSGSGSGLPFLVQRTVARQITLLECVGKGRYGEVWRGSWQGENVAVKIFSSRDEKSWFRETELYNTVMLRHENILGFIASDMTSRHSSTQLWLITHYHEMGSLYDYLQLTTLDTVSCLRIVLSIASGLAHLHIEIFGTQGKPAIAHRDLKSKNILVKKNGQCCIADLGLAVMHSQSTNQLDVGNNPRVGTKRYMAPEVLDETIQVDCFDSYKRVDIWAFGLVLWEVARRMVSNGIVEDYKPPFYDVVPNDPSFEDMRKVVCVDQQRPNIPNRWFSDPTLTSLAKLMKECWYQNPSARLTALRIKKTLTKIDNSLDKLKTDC
The assay can be described thus: LanthaScreen Eu Kinase Binding Assay, ALK2 inhibition. The note with it: 1 micromolar concentration. The method, then:
Biochemical assays to measure the inhibitory effects of the compounds were performed by ThermoFisher Scientific (Life Technologies). ALK2 inhibition was tested using LanthaScreen™ Eu Kinase Binding Assay screening protocol.
In general terms: In TR-FRET formats the signal depends on donor and acceptor labels being close together.

In general, inhibition refers to the relative decrease from the control value, in per cent. Lower therefore signals a weak effect.

Structures are written as SMILES. Bounds are passed on as bounds.

As to `COc1cc(-n2cnc(Nc3nc(C4CC4)c4cnn(C(C)C)c4n3)c2)cc(OC)c1OC` [Compound 13b, 4-cyclopropyl-1-isopropyl-N-(1-(3,4,5-trimethoxyphenyl)-1H-imidazol-4-yl)-1H-pyrazolo[3,4-d]pyrimidin-6-amine], the inhibition at 1 µM was greater than 50%. The same measure for `COc1cc(-n2cnc(Nc3nc(C(C)C)nc4c3cnn4C3CC3)c2)cc(OC)c1OC` [Compound 14f, 1-cyclopropyl-6-isopropyl-N-(1-(3,4,5-trimethoxyphenyl)-1H-imidazol-4-yl)-1H-pyrazolo[3,4-d]pyrimidin-4-amine]: greater than 50%; for `CCCC(C)n1ncc2c(Nc3cn(-c4cc(OC)c(OC)c(OC)c4)cn3)nc(C(C)C)nc21` (stereo not shown) [Compound 15e, 6-isopropyl-1-(pentan-2-yl)-N-(1-(3,4,5-trimethoxyphenyl)-1H-imidazol-4-yl)-1H-pyrazolo[3,4-d]pyrimidin-4-amine]: greater than 50%. Take `CCCCCn1ncc2c(Nc3cn(-c4cc(OC)c(OC)c(OC)c4)cn3)nc(C(C)C)nc21` [Compound 16c, 6-isopropyl-1-pentyl-N-(1-(3,4,5-trimethoxyphenyl)-1H-imidazol-4-yl)-1H-pyrazolo[3,4-d]pyrimidin-4-amine]: the inhibition at 1 µM was greater than 50%.

Compound `COc1cc(-n2cnc(Nc3nc(C(C)C)nc4c3cnn4CC3CC3)c2)cc(OC)c1OC` [Compound 17c, 1-(cyclopropylmethyl)-6-isopropyl-N-(1-(3,4,5-trimethoxyphenyl)-1H-imidazol-4-yl)-1H-pyrazolo[3,4-d]pyrimidin-4-amine] gave an inhibition at 1 µM greater than 50%. With `COc1cc(-n2cnc(Nc3nc(C(C)C)nc4c3cnn4C3CCCC3)c2)cc(OC)c1OC` [Compound 18c, 1-cyclopentyl-6-isopropyl-N-(1-(3,4,5-trimethoxyphenyl)-1H-imidazol-4-yl)-1H-pyrazolo[3,4-d]pyrimidin-4-amine], the inhibition at 1 µM was greater than 50%. With `COc1cc(-n2cnc(Nc3nc(C(C)C)nc4c3cnn4CC(C)C)c2)cc(OC)c1OC` [Compound 20c, 1-isobutyl-6-isopropyl-N-(1-(3,4,5-trimethoxyphenyl)-1H-imidazol-4-yl)-1H-pyrazolo[3,4-d]pyrimidin-4-amine], the inhibition at 1 µM was greater than 50%. The same measure for `COc1cc(-n2cnc(Nc3nc(C(C)C)nc4c3cnn4C3CCOC3)c2)cc(OC)c1OC` (stereo not shown) [Compound 21c, 6-isopropyl-1-(tetrahydrofuran-3-yl)-N-(1-(3,4,5-trimethoxyphenyl)-1H-imidazol-4-yl)-1H-pyrazolo[3,4-d]pyrimidin-4-amine]: greater than 50%; for `CCn1ncc2c(Nc3cn(-c4cc(OC)c(OC)c(OC)c4)cn3)nc(C(C)C)nc21` [Compound 23c, 1-ethyl-6-isopropyl-N-(1-(3,4,5-trimethoxyphenyl)-1H-imidazol-4-yl)-1H-pyrazolo[3,4-d]pyrimidin-4-amine]: greater than 50%; for `COc1cc(-n2cnc(Nc3nc(C(C)C)nc4c3cnn4CC3CCCC3)c2)cc(OC)c1OC` [Compound 24c, 1-(cyclopentylmethyl)-6-isopropyl-N-(1-(3,4,5-trimethoxyphenyl)-1H-imidazol-4-yl)-1H-pyrazolo[3,4-d]pyrimidin-4-amine]: greater than 50%. The same measure for `COc1cc(-n2cnc(Nc3nc(C(F)(F)F)nc4[nH]ncc34)c2)cc(OC)c1OC` [Compound 25b, 6-(trifluoromethyl)-N-(1-(3,4,5-trimethoxyphenyl)-1H-imidazol-4-yl)-1H-pyrazolo[3,4-d]pyrimidin-4-amine]: greater than 50%.

Compound `COc1cc(-n2cnc(Nc3nc(C(F)(F)F)nc4c3cnn4C(C)C)c2)cc(OC)c1OC` [Compound 26a, 1-isopropyl-6-(trifluoromethyl)-N-(1-(3,4,5-trimethoxyphenyl)-1H-imidazol-4-yl)-1H-pyrazolo[3,4-d]pyrimidin-4-amine] yielded an inhibition at 1 µM greater than 50%. The same measure for `C=CCC(C)c1nc(Nc2cn(-c3cc(OC)c(OC)c(OC)c3)cn2)c2cnn(C(C)C)c2n1` (stereo not shown) [Compound 27f, 1-isopropyl-6-(pent-4-en-2-yl)-N-(1-(3,4,5-trimethoxyphenyl)-1H-imidazol-4-yl)-1H-pyrazolo[3,4-d]pyrimidin-4-amine]: greater than 50%; for `COc1cc(-n2cnc(Nc3nc(C4CC(F)(F)C4)nc4c3cnn4C(C)C)c2)cc(OC)c1OC` [Compound 28e, 6-(3,3-difluorocyclobutyl)-1-isopropyl-N-(1-(3,4,5-trimethoxyphenyl)-1H-imidazol-4-yl)-1H-pyrazolo[3,4-d]pyrimidin-4-amine]: greater than 50%; for `CCCC(C)c1nc(Nc2cn(-c3cc(OC)c(OC)c(OC)c3)cn2)c2cnn(C(C)C)c2n1` (stereo not shown) [Compound 29a, 1-isopropyl-6-(pentan-2-yl)-N-(1-(3,4,5-trimethoxyphenyl)-1H-imidazol-4-yl)-1H-pyrazolo[3,4-d]pyrimidin-4-amine]: greater than 50%. Consider `COCCc1nc(Nc2cn(-c3cc(OC)c(OC)c(OC)c3)cn2)c2cnn(C(C)C)c2n1` [Compound 30e, 1-isopropyl-6-(2-methoxyethyl)-N-(1-(3,4,5-trimethoxyphenyl)-1H-imidazol-4-yl)-1H-pyrazolo[3,4-d]pyrimidin-4-amine], for which the inhibition at 1 µM is greater than 50%. For `COc1cc(-n2cnc(Nc3nc(C)nc4c3cnn4C(C)C)c2)cc(OC)c1OC` [Compound 31b, 1-isopropyl-6-methyl-N-(1-(3,4,5-trimethoxyphenyl)-1H-imidazol-4-yl)-1H-pyrazolo[3,4-d]pyrimidin-4-amine] the value was greater than 50%; for `COc1cc(-n2cnc(Nc3nc(C(C)(C)C)nc4c3cnn4C(C)C)c2)cc(OC)c1OC` [Compound 32d, 6-(tert-butyl)-1-isopropyl-N-(1-(3,4,5-trimethoxyphenyl)-1H-imidazol-4-yl)-1H-pyrazolo[3,4-d]pyrimidin-4-amine], greater than 50%; for `CCC(C)c1nc(Nc2cn(-c3cc(OC)c(OC)c(OC)c3)cn2)c2cnn(C(C)C)c2n1` (stereo not shown) [Compound 33d, 6-(sec-butyl)-1-isopropyl-N-(1-(3,4,5-trimethoxyphenyl)-1H-imidazol-4-yl)-1H-pyrazolo[3,4-d]pyrimidin-4-amine], greater than 50%. For `COc1cc(-n2cnc(Nc3nc(CC4CC4)nc4c3cnn4C(C)C)c2)cc(OC)c1OC` [Compound 34d, 6-(cyclopropylmethyl)-1-isopropyl-N-(1-(3,4,5-trimethoxyphenyl)-1H-imidazol-4-yl)-1H-pyrazolo[3,4-d]pyrimidin-4-amine] the value was greater than 50%.

Regarding `COc1cc(-n2cnc(Nc3nc(C4CCC4)nc4c3cnn4C(C)C)c2)cc(OC)c1OC` [Compound 35d, 6-cyclobutyl-1-isopropyl-N-(1-(3,4,5-trimethoxyphenyl)-1H-imidazol-4-yl)-1H-pyrazolo[3,4-d]pyrimidin-4-amine], the inhibition at 1 µM is greater than 50%. `COc1cc(-n2cnc(Nc3nc(CO)nc4c3cnn4C(C)C)c2)cc(OC)c1OC` [Compound 36e, (1-isopropyl-4-((1-(3,4,5-trimethoxyphenyl)-1H-imidazol-4-yl)amino)-1H-pyrazolo[3,4-d]pyrimidin-6-yl)methanol] displayed an inhibition at 1 µM greater than 50%. `COc1cc(-n2cnc(Nc3nc(C4=CCN(C)CC4)nc4c3cnn4C(C)C)c2)cc(OC)c1OC` [Compound 38b, 1-isopropyl-6-(1-methyl-1,2,3,6-tetrahydropyridin-4-yl)-N-(1-(3,4,5-trimethoxyphenyl)-1H-imidazol-4-yl)-1H-pyrazolo[3,4-d]pyrimidin-4-amine] yielded an inhibition at 1 µM greater than 50%. For `COc1cc(-n2cnc(Nc3nc(C(C)C)nc4c3cnn4-c3ccccc3)c2)cc(OC)c1OC` [Compound 39d, 6-isopropyl-1-phenyl-N-(1-(3,4,5-trimethoxyphenyl)-1H-imidazol-4-yl)-1H-pyrazolo[3,4-d]pyrimidin-4-amine] the value was greater than 50%; for `COc1cc(-n2cnc(Nc3nc(C4=CN(C(=O)OC(C)(C)C)CC4)nc4c3cnn4C(C)C)c2)cc(OC)c1OC` [Compound 40b, tert-butyl 4-(1-isopropyl-4-((1-(3,4,5-trimethoxyphenyl)-1H-imidazol-4-yl)amino)-1H-pyrazolo[3,4-d]pyrimidin-6-yl)-2,3-dihydro-1H-pyrrole-1-carboxylate], greater than 50%; for `COc1cc(-n2cnc(Nc3nc(C4CCN(C(=O)OC(C)(C)C)C4)nc4c3cnn4C(C)C)c2)cc(OC)c1OC` (stereo not shown) [Compound 41a, tert-butyl 3-(1-isopropyl-4-((1-(3,4,5-trimethoxyphenyl)-1H-imidazol-4-yl)amino)-1H-pyrazolo[3,4-d]pyrimidin-6-yl)pyrrolidine-1-carboxylate], greater than 50%. As for `COc1cc(-n2cnc(Nc3nc(C(C)C)nc4c3cnn4-c3ccc(F)cc3F)c2)cc(OC)c1OC` [Compound 42d, 1-(2,4-difluorophenyl)-6-isopropyl-N-(1-(3,4,5-trimethoxyphenyl)-1H-imidazol-4-yl)-1H-pyrazolo[3,4-d]pyrimidin-4-amine], the inhibition at 1 µM was greater than 50%. For `COc1cc(-n2cnc(Nc3nc(C(C)C)nc4c3cnn4-c3c(F)cccc3F)c2)cc(OC)c1OC` [Compound 43d, 1-(2,6-difluorophenyl)-6-isopropyl-N-(1-(3,4,5-trimethoxyphenyl)-1H-imidazol-4-yl)-1H-pyrazolo[3,4-d]pyrimidin-4-amine] the value was greater than 50%.
